This is an account of results in patent US6448436B1, “Integrated process for the production of 2, 6-naphthalene dicarboxylic acid” (Mossi & Ghisolfi Overseas, S. A., priority 1999, dated 2002).

The nature of this data set: Solubility of the potassium salts equilibrated in aqueous potassium carbonate solutions. The data set is classed as physicochemical. The text has this:
The data was gathered by equilibrating the potassium salts of 2-KNA and 2,6-K2NDA in aqueous solutions of potassium carbonate. The capped jars were contained in water baths to control the temperature and were magnetically stirred to speed the dissolution of the solids. Data derived from the solubility studies are outlined in Table 6.

Setting [1] is: 10 wt % K2CO3 aqueous solution, 35° C.
[2] abbreviates: 15 wt % K2CO3 aqueous solution, 35° C.
[3] abbreviates: 20 wt % K2CO3 aqueous solution, 35° C.
The mark [4] stands for this setting: 20 wt % K2CO3 aqueous solution, 80° C.
Where [5] appears, read: 25 wt % K2CO3 aqueous solution, 35° C.
Setting [6] is: 25 wt % K2CO3 aqueous solution, 80° C.
Where [7] appears, read: 30 wt % K2CO3 aqueous solution, 35° C.
Where [8] appears, read: 30 wt % K2CO3 aqueous solution, 80° C.

Take `O=C([O-])c1ccc2ccccc2c1.[K+]` [2-KN]: the Solubility by setting is: under setting [1], 33.9 wt %; under setting [2], 13.2 wt %; under setting [3], 2.1 wt %; under setting [4], 41.1 wt %; under setting [5], 0.4 wt %; under setting [6], 19.2 wt %. Also, the Solubility turned out to be 0.2 wt % under setting [7] and 7.4 wt % under setting [8].
Consider `O=C([O-])c1ccc2cc(C(=O)[O-])ccc2c1.[K+].[K+]` [2,6-K2NDA, dipotassium salt of 2,6-NDA], for which the “Solubility Ratio 2,6-K2NDA/2-KNA” value runs as follows: (10 wt % K2CO3, 35° C.) 0.41; (15 wt % K2CO3, 35° C.) 0.52; (20 wt % K2CO3, 35° C.) 1.13; (20 wt % K2CO3, 80° C.) 0.13; (25 wt % K2CO3, 35° C.) 1.41; (25 wt % K2CO3, 80° C.) 0.08. The “Solubility Ratio 2,6-K2NDA/2-KNA” value came out at 1.33 (30 wt % K2CO3, 35° C.) and 0.08 (30 wt % K2CO3, 80° C.). Besides, the Solubility stood at 13.8 wt % under setting [1]; 6.8 wt % under setting [2]; 2.4 wt % under setting [3]; 5.5 wt % under setting [4]; 0.6 wt % under setting [5]; 1.6 wt % under setting [6]. Besides, the Solubility worked out at 0.2 wt % under setting [7] and 0.6 wt % under setting [8]. Besides, under “aqueous K2CO3 solutions, 35° C. vs 80° C.”, the “Temperature dependence of solubility” value is “only a weak function of temperature”.
